In brackets after ≈: the same amount, converted by molar mass. Where two headings read alike, the source gives them in different places.
Tests used:
Type in all cases: cell-based
[1] = test system: A. baumannii ATCC 19606; test: microbe, parasite or virus in culture; details: Acinetobacter baumannii, ATCC19606, read-out: MIC, A. baumannii ATCC 19606
[2] = test system: E. coli AG100; test: microbe, parasite or virus in culture; details: Escherichia coli, AG100, read-out: MIC E. coli AG100
[3] = test system: P. aeruginosa (ΔmexAB-oprM); test: Broth microdilution MIC in CAMHB
[4] = test system: P. aeruginosa ATCC 27853; test: microbe, parasite or virus in culture; details: Pseudomonas aeruginosa, ATCC27853, read-out: MIC P. aeruginosa ATCC 27853
[5] = test system: E. coli ATCC 25922; test: microbe, parasite or virus in culture; details: Escherichia coli, ATCC25922, read-out: MIC E. coli 25922
[6] = test system: K. pneumoniae 848844; test: microbe, parasite or virus in culture; details: Klebsiella pneumoniae, 848844, read-out: MIC K. pneumoniae 848844
[7] = test system: A. baumannii CDC-0083; test: microbe, parasite or virus in culture; details: Acinetobacter baumannii, CDC0083, read-out: MIC, A. baumannii CDC-0083
[8] = Pseudomonas aeruginosa; read-out: MIC P. aeruginosa ΔmexAB-oprM

SMILES | MIC [1] [mg/L] | MIC [2] [mg/L] | MIC [3, 8] [mg/L] | MIC [4] [mg/L] | MIC [5] [mg/L] | MIC [6] [mg/L] | MIC ([3]; Pseudomonas aeruginosa, read-out: MIC P. aeruginosa ΔmexAB-oprM) [mg/L] | MIC [7] [mg/L]
O=C(O)c1c(F)ccc2c1OB(O)[C@@H](NC(=O)[C@H](NC(=O)N1CCN(S(=O)(=O)c3ccc(O)c(O)c3Cl)C1=O)c1ccc(P(=O)(O)O)cc1)C2 [Example 506, (R)-3-((R)-2-(3-((2-chloro-3,4-dihydroxyphenyl)sulfonyl)-2-oxoimidazolidine-1-carboxamido)-2-(4-phosphonophenyl)acetamido)-7-fluoro-2-hydroxy-3,4-dihydro-2H-benzo[e][1,2]oxaborinine-8-carboxylic acid] | < 1 | < 1 | < 1 | < 1 | < 1 | 2 to 4 (≈ 2.64 to 5.29 µM) | – | –
O=C(O)c1c(F)ccc2c1OB(O)[C@@H](NC(=O)C(NC(=O)N1CCN(S(=O)(=O)c3ccc(O)c(O)c3Cl)C1=O)c1ccc(P(=O)(O)O)cc1)C2 (stereo partly drawn) [Example 505, (3R)-3-(2-(3-((2-chloro-3,4-dihydroxyphenyl)sulfonyl)-2-oxoimidazolidine-1-carboxamido)-2-(4-phosphonophenyl)acetamido)-7-fluoro-2-hydroxy-3,4-dihydro-2H-benzo[e][1,2]oxaborinine-8-carboxylic acid] | < 1 | < 1 | < 1 | < 1 | < 1 | < 1 | – | –
O=C(O)c1cccc2c1OB(O)[C@@H](NC(=O)[C@H](NC(=O)N1CCN(Cc3cc(F)c(O)c(O)c3Cl)C(=O)C1=O)c1ccc(P(=O)(O)O)cc1)C2 [Example 504, (R)-3-((R)-2-(4-(2-chloro-5-fluoro-3,4-dihydroxybenzyl)-2,3-dioxopiperazine-1-carboxamido)-2-(4-phosphonophenyl)acetamido)-2-hydroxy-3,4-dihydro-2H-benzo[e][1,2]oxaborinine-8-carboxylic acid] | < 1 | < 1 | – | < 1 | < 1 | 2 to 4 (≈ 2.72 to 5.44 µM) | < 1 | –
O=C(O)c1cccc2c1OB(O)[C@@H](NC(=O)[C@H](NC(=O)N1CCN(S(=O)(=O)c3ccc(O)c(O)c3Cl)C1=O)c1ccc(P(=O)(O)O)cc1)C2 [Example 509, (R)-3-((R)-2-(3-((2-chloro-3,4-dihydroxyphenyl)sulfonyl)-2-oxoimidazolidine-1-carboxamido)-2-(4-phosphonophenyl)acetamido)-2-hydroxy-3,4-dihydro-2H-benzo[e][1,2]oxaborinine-8-carboxylic acid] | < 1 | < 1 | < 1 | < 1 | < 1 | < 1 | – | –
O=C(O)c1c(F)ccc2c1OB(O)[C@@H](NC(=O)[C@H](NC(=O)N1CCN(Cc3ccc(O)c(O)c3Cl)C(=O)C1=O)c1ccc(P(=O)(O)O)cc1)C2 (single isomer, unassigned) [Example 160] | < 1 | < 1 | < 1 | < 1 | 2 to 4 (≈ 2.72 to 5.44 µM) | 32 to 64 (≈ 43.6 to 87.1 µM) | – | < 1

Reference: US20240270762A1, “PENICILLIN-BINDING PROTEIN INHIBITORS” (priority 2021, published 2024)
